Data taken from ChEMBL document CHEMBL4421723, “Novel drug targets to overcome de novo drug-resistance in multiple myeloma” (2013).
Activity calls are given as the source filed them. The rule behind the calls is not given here.

What was measured:
[1] = molecular target: DNA topoisomerase 2-alpha (Homo sapiens) (UniProt P11388); test: Binding affinity to nuclear export signal of topoisomerase 2alpha in human RPMI8226 cells assessed as potentiation of doxorubicin-induced apoptosis by measuring increase in cleaved caspase-3 levels at 25 uM pre-incubated for 20 hrs followed by addition of doxorubicin for 4 hrs; assay type: cell-based
DNA topoisomerase 2-alpha (Homo sapiens), sequence (P11388 whole entry): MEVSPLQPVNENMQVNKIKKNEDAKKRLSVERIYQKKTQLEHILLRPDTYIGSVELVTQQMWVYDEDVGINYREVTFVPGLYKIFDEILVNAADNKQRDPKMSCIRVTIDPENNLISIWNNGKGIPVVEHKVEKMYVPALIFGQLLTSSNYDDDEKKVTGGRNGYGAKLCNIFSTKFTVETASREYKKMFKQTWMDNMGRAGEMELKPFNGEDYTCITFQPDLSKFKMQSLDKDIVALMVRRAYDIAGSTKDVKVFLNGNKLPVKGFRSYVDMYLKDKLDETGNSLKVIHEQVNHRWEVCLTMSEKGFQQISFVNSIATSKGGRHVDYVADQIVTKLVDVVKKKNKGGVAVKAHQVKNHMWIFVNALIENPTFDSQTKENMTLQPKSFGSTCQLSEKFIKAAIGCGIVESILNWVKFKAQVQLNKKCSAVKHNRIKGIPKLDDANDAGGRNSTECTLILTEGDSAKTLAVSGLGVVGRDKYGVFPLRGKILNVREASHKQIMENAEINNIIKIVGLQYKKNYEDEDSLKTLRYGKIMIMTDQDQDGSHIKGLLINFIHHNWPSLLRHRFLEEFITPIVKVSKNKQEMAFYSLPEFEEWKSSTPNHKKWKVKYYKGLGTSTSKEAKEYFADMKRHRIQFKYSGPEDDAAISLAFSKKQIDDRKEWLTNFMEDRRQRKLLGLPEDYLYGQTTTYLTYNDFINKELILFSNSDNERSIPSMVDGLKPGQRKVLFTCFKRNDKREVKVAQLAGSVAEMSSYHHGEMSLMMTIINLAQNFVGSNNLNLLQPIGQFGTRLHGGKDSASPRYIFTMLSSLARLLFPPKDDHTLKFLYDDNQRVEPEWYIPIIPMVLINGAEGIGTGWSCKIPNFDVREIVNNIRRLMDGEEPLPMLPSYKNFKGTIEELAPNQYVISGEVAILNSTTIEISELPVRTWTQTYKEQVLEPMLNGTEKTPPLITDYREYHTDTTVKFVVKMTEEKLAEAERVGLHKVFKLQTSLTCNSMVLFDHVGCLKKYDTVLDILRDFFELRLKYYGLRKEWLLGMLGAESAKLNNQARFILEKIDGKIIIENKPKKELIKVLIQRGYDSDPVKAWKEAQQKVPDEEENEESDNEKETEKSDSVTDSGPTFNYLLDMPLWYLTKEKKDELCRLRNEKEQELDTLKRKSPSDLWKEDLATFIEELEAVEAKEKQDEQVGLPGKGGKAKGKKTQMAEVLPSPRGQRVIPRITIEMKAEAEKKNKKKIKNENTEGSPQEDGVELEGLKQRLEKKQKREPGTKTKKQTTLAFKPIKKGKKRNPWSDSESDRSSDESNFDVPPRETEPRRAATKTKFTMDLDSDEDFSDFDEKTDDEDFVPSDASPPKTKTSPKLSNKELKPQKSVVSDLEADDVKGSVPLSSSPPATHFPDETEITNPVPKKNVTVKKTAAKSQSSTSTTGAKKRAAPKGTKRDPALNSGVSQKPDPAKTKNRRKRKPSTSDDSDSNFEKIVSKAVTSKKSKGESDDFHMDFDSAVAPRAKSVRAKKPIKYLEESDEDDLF

RPMI-8226 [2] = test: Induction of apoptosis in human RPMI8226 cells assessed as increase in cleaved caspase-3 levels at 25 uM incubated for 20 hrs; assay type: functional, cell-based
NCI-H929 = test: Induction of apoptosis in human NCI-H929 cells assessed as increase in cleaved caspase-3 levels at 25 uM incubated for 20 hrs; assay type: functional, cell-based
[3] = molecular target: DNA topoisomerase 2-alpha (Homo sapiens) (UniProt P11388); test: Binding affinity to nuclear export signal of topoisomerase 2alpha in human NCI-H929 cells assessed as potentiation of doxorubicin-induced apoptosis by measuring increase in cleaved caspase-3 levels at 25 uM pre-incubated for 20 hrs followed by addition of doxorubicin for 4 hrs; assay type: cell-based
[4] = molecular target: DNA topoisomerase 2-alpha (Homo sapiens) (UniProt P11388); test: Binding affinity to nuclear export signal of topoisomerase 2alpha in human U266 cells assessed as potentiation of doxorubicin-induced apoptosis by measuring increase in cleaved caspase-3 levels at 25 uM pre-incubated for 20 hrs followed by addition of doxorubicin for 4 hrs; assay type: cell-based
U-266 = test: Induction of apoptosis in human U266 cells assessed as increase in cleaved caspase-3 levels at 25 uM incubated for 20 hrs; assay type: functional, cell-based
[5] = molecular target: DNA topoisomerase 2-alpha (Homo sapiens) (UniProt P11388); test: Binding affinity to nuclear export signal of topoisomerase 2alpha in human WI38 cells assessed as potentiation of doxorubicin-induced apoptosis by measuring increase in cleaved caspase-3 levels at 25 uM pre-incubated for 20 hrs followed by addition of doxorubicin for 4 hrs; assay type: cell-based
RPMI-8226 [6] = test: Effect on Top2alpha protein levels in human RPMI8226 cells at 25 uM incubated for 20 hrs by Western blot analysis; assay type: cell-based; settings: rpmi-8226, 20 h
[7] = molecular target: DNA topoisomerase 2-alpha (Homo sapiens) (UniProt P11388); test: Binding affinity to nuclear export signal of topoisomerase 2alpha in human PBMC cells assessed as potentiation of doxorubicin-induced apoptosis by measuring increase in cleaved caspase-3 levels at 25 uM pre-incubated for 20 hrs followed by addition of doxorubicin for 4 hrs; assay type: cell-based
[8] = molecular target: DNA topoisomerase 2-alpha (Homo sapiens) (UniProt P11388); test: Inhibition of nuclear export signal of topoisomerase 2alpha in human NCI-H929 cells assessed as reduction in cytoplasmic localization of Top2alpha at 100 uM incubated for 24 hrs by Western blot analysis; assay type: cell-based
[9] = molecular target: DNA topoisomerase II (Homo sapiens) (UniProt P11388+Q02880); test: Inhibition of decatenation activity of human topoisomerase 2 using kinetoplast DNA up to 50 uM incubated for 30 mins by agarose gel electrophoresis; assay type: protein assay
[10] = molecular target: DNA topoisomerase 2-alpha (Homo sapiens) (UniProt P11388); test: Binding affinity to nuclear export signal of topoisomerase 2alpha in human KG1a cells assessed as potentiation of doxorubicin-induced apoptosis by measuring increase in cleaved caspase-3 levels at 25 uM pre-incubated for 20 hrs followed by addition of doxorubicin for 4 hrs; assay type: cell-based
[11] = molecular target: DNA topoisomerase 2-alpha (Homo sapiens) (UniProt P11388); test: Binding affinity to nuclear export signal of topoisomerase 2alpha in human MCF7 cells assessed as potentiation of doxorubicin-induced apoptosis by measuring increase in cleaved caspase-3 levels at 25 uM pre-incubated for 20 hrs followed by addition of doxorubicin for 4 hrs; assay type: cell-based
[12] = molecular target: Cellular tumor antigen p53 (Homo sapiens) (UniProt P04637); test: Inhibition of p53 nuclear export in human NCI-H929 cells at 25 uM incubated for 20 hrs by Western blot analysis; assay type: cell-based
Cellular tumor antigen p53 (Homo sapiens), sequence (P04637 whole entry, looked up): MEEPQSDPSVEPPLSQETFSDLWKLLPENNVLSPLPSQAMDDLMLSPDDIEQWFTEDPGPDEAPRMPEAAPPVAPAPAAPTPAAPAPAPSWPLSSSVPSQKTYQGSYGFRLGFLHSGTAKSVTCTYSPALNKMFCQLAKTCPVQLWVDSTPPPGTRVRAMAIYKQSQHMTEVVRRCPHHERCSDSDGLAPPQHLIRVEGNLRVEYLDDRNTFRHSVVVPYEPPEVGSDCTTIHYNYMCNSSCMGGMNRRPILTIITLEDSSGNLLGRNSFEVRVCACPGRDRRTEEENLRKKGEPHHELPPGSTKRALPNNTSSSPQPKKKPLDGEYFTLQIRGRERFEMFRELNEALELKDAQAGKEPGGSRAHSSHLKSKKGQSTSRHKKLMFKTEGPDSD

[13] = molecular target: DNA topoisomerase 2-alpha (Homo sapiens) (UniProt P11388); test: Binding affinity to nuclear export signal of topoisomerase 2alpha in human Flow 2000 cells assessed as potentiation of doxorubicin-induced apoptosis by measuring increase in cleaved caspase-3 levels at 25 uM pre-incubated for 20 hrs followed by addition of doxorubicin for 4 hrs; assay type: cell-based
[14] = molecular target: DNA topoisomerase 2-alpha (Homo sapiens) (UniProt P11388); test: Binding affinity to nuclear export signal of topoisomerase 2alpha in human HL60 cells assessed as potentiation of doxorubicin-induced apoptosis by measuring increase in cleaved caspase-3 levels at 25 uM pre-incubated for 20 hrs followed by addition of doxorubicin for 4 hrs; assay type: cell-based
[15] = molecular target: DNA topoisomerase 2-alpha (Homo sapiens) (UniProt P11388); test: Inhibition of nuclear export signal of topoisomerase 2alpha in human NCI-H929 cells assessed as increase in nuclear localization of Top2alpha at 50 uM incubated for 2 hrs by Western blot analysis; assay type: cell-based
[16] = molecular target: DNA topoisomerase 2-alpha (Homo sapiens) (UniProt P11388); test: Inhibition of nuclear export signal of topoisomerase 2alpha in human NCI-H929 cells assessed as reduction in Top2alpha binding to CRM1 at 25 uM incubated for 20 hrs by Western blot analysis and co-immunoprecipitation analysis; assay type: cell-based
[17] = molecular target: Exportin-1 (Homo sapiens) (UniProt O14980); test: Inhibition of CRM1 in human NCI-H929 cells assessed as increase in nuclear localization of Top2alpha at 50 uM incubated for 2 hrs by Western blot analysis; assay type: cell-based
Exportin-1 (Homo sapiens), sequence (O14980 whole entry): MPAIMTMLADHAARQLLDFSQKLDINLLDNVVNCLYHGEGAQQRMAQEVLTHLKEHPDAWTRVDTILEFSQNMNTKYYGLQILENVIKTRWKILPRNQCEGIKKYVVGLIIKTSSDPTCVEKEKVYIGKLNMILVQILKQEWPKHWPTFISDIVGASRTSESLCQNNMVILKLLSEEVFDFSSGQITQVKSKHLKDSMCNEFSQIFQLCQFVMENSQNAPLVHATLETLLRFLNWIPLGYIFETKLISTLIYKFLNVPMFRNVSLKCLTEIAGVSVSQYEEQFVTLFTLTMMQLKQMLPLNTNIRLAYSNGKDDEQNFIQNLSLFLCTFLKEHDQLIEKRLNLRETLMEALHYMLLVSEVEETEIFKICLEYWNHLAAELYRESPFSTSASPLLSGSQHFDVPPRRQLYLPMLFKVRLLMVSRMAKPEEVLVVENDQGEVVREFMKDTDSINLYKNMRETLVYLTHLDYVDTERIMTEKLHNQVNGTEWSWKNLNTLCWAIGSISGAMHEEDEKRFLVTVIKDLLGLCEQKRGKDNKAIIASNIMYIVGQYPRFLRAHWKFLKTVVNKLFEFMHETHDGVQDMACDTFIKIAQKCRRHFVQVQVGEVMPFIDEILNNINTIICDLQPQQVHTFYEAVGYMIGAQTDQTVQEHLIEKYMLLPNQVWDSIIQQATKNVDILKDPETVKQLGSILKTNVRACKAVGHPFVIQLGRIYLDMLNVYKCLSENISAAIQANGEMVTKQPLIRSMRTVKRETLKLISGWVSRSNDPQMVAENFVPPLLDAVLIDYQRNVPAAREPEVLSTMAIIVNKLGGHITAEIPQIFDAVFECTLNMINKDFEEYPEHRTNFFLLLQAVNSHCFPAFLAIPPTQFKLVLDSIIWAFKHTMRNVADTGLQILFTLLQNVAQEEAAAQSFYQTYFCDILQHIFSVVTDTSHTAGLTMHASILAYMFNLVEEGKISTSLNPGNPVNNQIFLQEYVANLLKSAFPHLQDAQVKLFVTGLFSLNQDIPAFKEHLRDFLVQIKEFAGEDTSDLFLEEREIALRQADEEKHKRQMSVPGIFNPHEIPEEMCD

Row | Activity [1] | Activity [3] | Activity [4] | inhibition [8] | Structure (SMILES) | Activity (RPMI-8226 [2]) | Activity (NCI-H929) | Activity (U-266) | inhibition [5] | Activity (RPMI-8226 [6]) | inhibition [7] | inhibition [9] | inhibition [10] | inhibition [11] | inhibition [12] | inhibition [13] | inhibition [14] | inhibition [15] | inhibition [16] | inhibition [17]
1 | Active | Active | Active | – | c1ccc(C2NNC(c3ccccc3)NN2)cc1 (stereo unspecified) | inactive | inactive | inactive | – | – | – | – | – | – | – | – | – | – | – | –
2 | Active | Active | Active | – | COCN1CCC2N(COC)CCC3N(COC)CCC1N23 (stereo unspecified) | inactive | inactive | inactive | – | – | – | – | – | – | – | – | – | – | – | –
3 | – | – | – | inactive | O=C(C[N+]12CN3CN(CN(C3)C1)C2)c1ccc(Br)cc1 | – | – | – | – | – | – | – | – | – | – | – | – | – | – | –
4 | Active | Active | Active | inactive | Clc1cc(Cl)c(C[N+]23CN4CN(CN(C4)C2)C3)cc1Cl | inactive | inactive | inactive | inactive | Non-Toxic | inactive | inactive | inactive | Active | inactive | inactive | inactive | – | – | –
5 | Active | Active | Active | – | C1CN2C(=N1)N1CCN=C1N1CCN=C21 | inactive | inactive | inactive | – | – | – | – | – | – | – | – | – | – | – | –
6 | – | – | – | – | C/C=C/[C@@H]1O[C@H]([C@H](O)/C=C/C=C/C[C@@H](C)/C=C(\C=C\[C@H]2CC=CC(=O)O2)CC)C[C@@H](O)[C@@H]1C | – | – | – | – | – | – | – | – | – | – | – | – | – | – | Active
7 | Active | Active | Active | Active | O=C(Nc1ccc(C2=NCCN2)cc1)c1ccc(C(=O)Nc2ccc(C3=NCCN3)cc2)c([N+](=O)[O-])c1 | inactive | inactive | inactive | inactive | Non-Toxic | inactive | inactive | inactive | Active | inactive | inactive | inactive | – | – | –

Row | Structure (SMILES) | Activity [1] | Activity [3] | Activity [4] | inhibition [8] | Activity (RPMI-8226 [2]) | Activity (NCI-H929) | Activity (U-266) | inhibition [5] | Activity (RPMI-8226 [6]) | inhibition [7] | inhibition [9] | inhibition [10] | inhibition [11] | inhibition [12] | inhibition [13] | inhibition [14] | inhibition [15] | inhibition [16] | inhibition [17]
8 | Brc1ccc(C[N+]23CN4CN(CN(C4)C2)C3)cc1 | Active | Active | Active | Active | inactive | inactive | inactive | inactive | Non-Toxic | inactive | inactive | inactive | Active | Active | inactive | inactive | – | – | –
9 | O=C1c2ccccc2C(=O)C1C(=O)C(c1ccccc1)c1ccccc1 [DIPHENADIONE] | Active | Active | Active | Active | inactive | inactive | inactive | inactive | Non-Toxic | inactive | inactive | inactive | Active | inactive | inactive | inactive | Active | Active | –
